Results published in article PMC10817917, “Alkyl deoxyglycoside-polymyxin combinations against critical priority carbapenem-resistant gram-negative bacteria” (Scientific Reports, 2024).
Where two headings read alike, the source gives them in different places.

Key:
[1] = tested on: A. baumannii CQ4322; test: Broth microdilution MIC/MBC, glycosides with or without polymyxins; format: cell-based, Acinetobacter baumannii; conditions: for MIC: Acinetobacter baumannii, CQ4322
[2] = tested on: HEK-293T cells; test: Resazurin cell viability assay (cytotoxicity); format: cell-based, human; conditions: Homo sapiens, HEK-293T, 72 h, read-out: IC50
Experimental: Cytotoxicity of each compound alone or in combination with different polymyxin concentrations was evaluated through the resazurin cell viability assay[49] in human embryonic HEK-293T cells, as well as in human colon adenocarcinoma Caco-2 cells, after a 72-h long incubation period.
HEK-293T and Caco-2 cells were grown in RPMI 1640 medium (VWR) supplemented with 10% FBS (Biowest), 1% PenStrep (Sigma Aldrich), and 1% glutamine (Biowest) in a humidified incubator at 37 °C with a 5% CO2 atmosphere. Twice a week, the medium was aspirated, the cells were washed with DPBS (VWR), trypsinized with trypsin–EDTA solution (Biowest), and resuspended in fresh culture medium. The dose-dependent effects of each glycoside or glycoside-polymyxin combination were evaluated by the resazurin cell viability assay. Polymyxins (colistin sulfate and PMB sulfate for microbiological assays, European Pharmacopoeia Reference Standards, Sigma-Aldrich) were firstly dissolved in sterilized Mili-Q water to a stock concentration of 1 mg/mL, while glycosides were dissolved in DMSO to a stock concentration of 30 mM. 1.5 × 10^4 cells/well in 96.5 µL of medium were seeded onto 96-well plates and incubated at 37 °C for 24 h. For each compound, ten stock dilutions (with concentrations from 750 to 75 µM) were prepared in fresh medium immediately prior to incubation. 16 µL of each dilution were added to each well so that the final glycoside concentrations ranged from 100 to 10 µM in each row in a final assay volume of 120 µL. In addition, the previously prepared polymyxin stock solutions were diluted in fresh medium, affording new stocks of 8, 4, and 2 µg/mL. The same volume (7.5 µL/well) of PMB or colistin was then added to each row to achieve a final polymyxin concentration of 0.5, 0.25, and 0.125 µg/mL, respectively, regardless of the glycoside concentration. In assays without polymyxin, the same volume (7.5 µL/well) of medium was added. In all assays, the maximum DMSO concentration was 0.33%. After a 72-h incubation at 37 °C, 12 µL of a 0.15 mg/mL resazurin (Sigma-Aldrich) in sterilized Mili-Q water were added to each well, and the plates were left incubating for another 4 h at 37 °C. Resorufin was measured at 570/600 nm, and the percentage of resazurin reduction, corresponding to the cell viability percentage, was calculated according to Eq. (1)[60]. IC50 values were obtained by best fitting the dose-dependent inhibition curves using the Prism 9® software. The results were expressed as the mean ± SD of three independent replicates, with only data from analysis with R^2 > 0.90 being considered.1 %Cellviability=Abssample-Absmediumcontrol/Abscellcontrol-Absmediumcontrol×100

[3] = tested on: K. pneumoniae CQ4921; test: Broth microdilution MIC/MBC, glycosides with or without polymyxins; format: cell-based, Klebsiella pneumoniae; conditions: for MIC: Klebsiella pneumoniae, CQ4921
[4] = tested on: E. coli NCTC 13846; test: as above; format: cell-based, Escherichia coli; conditions: strain B
[5] = tested on: K. pneumoniae CQ1947; test: Broth microdilution MIC, glycosides with or without polymyxins; format: cell-based, Klebsiella pneumoniae; conditions: for MIC: Klebsiella pneumoniae, CQ1947
[6] = tested on: P. aeruginosa CQ4924; test: as above; format: cell-based, Pseudomonas aeruginosa; conditions: for MIC: Pseudomonas aeruginosa, CQ4924
[7] = alone, read-out: MICA (MIC of each compound individually)
[8] = combination with the lowest FICI
[9] = compound + colistin, lowest FICI

## CCCCCCCCCCCCO[C@H]1C[C@H](O)[C@@H](O)[C@H](C)O1 [Compound 3, dodecyl 2,6-dideoxy-α-L-arabino-hexopyranoside]
[1]; agent alone, no adjuvant (polymyxin conc. 0), strain G, read-out: MIC
  MIC: > 100 µg/mL
[1]; [7]
  MIC: > 100 µg/mL
[1]; Cpd conc. 0.4 μg/mL, strain G
  MIC of colistin in combination with the compound: 0.5 µg/mL
[1]; Cpd conc. 0.8 μg/mL, strain G
  MIC of colistin in combination with the compound: 0.5 µg/mL
[1]; Cpd conc. 3.125 μg/mL, strain G
  MIC of colistin in combination with the compound: 0.5 µg/mL
[1]; Cpd conc. 6.25 μg/mL, strain G
  MIC of colistin in combination with the compound: 0.25 µg/mL
[1]; Cpd conc. 12.5 μg/mL, strain G
  MIC of colistin in combination with the compound: 0.25 µg/mL
[1]; Cpd conc. […], strain G
  MIC of colistin in combination with the compound: 0.5 µg/mL
[1]; PMB 0.25 μg/mL, strain G
  MIC of compound in combination with PMB: > 100 µg/mL
[1]; PMB 0.5 μg/mL, strain G
  MIC of compound in combination with PMB: 0.8 µg/mL
[1]; colistin 0.06 μg/mL, strain G
  MIC of compound in combination with colistin: > 100 µg/mL
[1]; colistin 0.125 μg/mL, strain G
  MIC of compound in combination with colistin: > 100 µg/mL
[1]; colistin 0.25 μg/mL, strain G
  MIC of compound in combination with colistin: 6.3 µg/mL
[1]; colistin 0.5 μg/mL, strain G
  MIC of compound in combination with colistin: ≤ 0.1 µg/mL
[1]; [8]
  MICA(A + B) (MIC of compound in combination with colistin): 6.25 µg/mL
  MICB(A + B) (MIC of colistin in combination with compound): 0.25 µg/mL
[1]; compound + colistin
  Interpretation (of FICI): Additive (from 0.5 to 1.0 were additive)
[1]; [9]
  FICI: 0.53
[2]; Colistin 0.5 μg/mL
  IC50: 79.3 ± 2 µM
[2]; No polymyxin
  IC50: 72.5 ± 2.51 µM
[2]; PMB 0.5 μg/mL
  IC50: 75.1 ± 2.7 µM
[2]; tested alone (no polymyxin adjuvant)
  IC50: 22.9 µg/mL
[3]; Cpd conc. 0.4 μg/mL, strain C
  MIC of colistin in combination with the compound: 0.5 µg/mL
[3]; Cpd conc. 0.8 μg/mL, strain C
  MIC of colistin in combination with the compound: 0.5 µg/mL
[3]; Cpd conc. 3.125 μg/mL, strain C
  MIC of colistin in combination with the compound: 0.25 µg/mL
[3]; Cpd conc. 6.25 μg/mL, strain C
  MIC of colistin in combination with the compound: 0.25 µg/mL
[3]; Cpd conc. 12.5 μg/mL, strain C
  MIC of colistin in combination with the compound: 0.25 µg/mL
[3]; Cpd conc. […], strain C
  MIC of colistin in combination with the compound: 0.5 µg/mL
[3]; agent alone, no adjuvant (polymyxin conc. 0), strain C, read-out: MIC
  MIC: > 100 µg/mL
[3]; [7]
  MIC: > 100 µg/mL
[3]; PMB 0.5 μg/mL, strain C
  MIC of compound in combination with PMB: ≤ 0.1 µg/mL
[3]; colistin 0.06 μg/mL, strain C
  MIC of compound in combination with colistin: > 100 µg/mL
[3]; colistin 0.125 μg/mL, strain C
  MIC of compound in combination with colistin: > 100 µg/mL
[3]; colistin 0.25 μg/mL, strain C
  MIC of compound in combination with colistin: 3.1 µg/mL
[3]; colistin 0.5 μg/mL, strain C
  MIC of compound in combination with colistin: 0.2 µg/mL
[3]; [8]
  MICA(A + B) (MIC of compound in combination with colistin): 3.125 µg/mL
  MICB(A + B) (MIC of colistin in combination with compound): 0.25 µg/mL
[3]; compound + colistin
  Interpretation (of FICI): Additive (from 0.5 to 1.0 were additive)
[3]; [9]
  FICI: 0.52
[4]; Cpd conc. 0.4 μg/mL
  MIC of colistin in combination with the compound: > 0.5 µg/mL
[4]; Cpd conc. 0.8 μg/mL
  MIC of colistin in combination with the compound: > 0.5 µg/mL
[4]; Cpd conc. 3.125 μg/mL
  MIC of colistin in combination with the compound: > 0.5 µg/mL
[4]; Cpd conc. 6.25 μg/mL
  MIC of colistin in combination with the compound: > 0.5 µg/mL
[4]; Cpd conc. 12.5 μg/mL
  MIC of colistin in combination with the compound: > 0.5 µg/mL
[4]; Cpd conc. […]
  MIC of colistin in combination with the compound: > 0.5 µg/mL
[4]; Escherichia coli, NCTC13846, agent alone, no adjuvant (polymyxin conc. 0), read-out: MIC
  MIC: > 100 µg/mL
[4]; PMB 0.25 μg/mL
  MIC of compound in combination with PMB: > 100 µg/mL
[4]; PMB 0.5 μg/mL
  MIC of compound in combination with PMB: > 100 µg/mL
[4]; colistin 0.06 μg/mL
  MIC of compound in combination with colistin: > 100 µg/mL
[4]; colistin 0.125 μg/mL
  MIC of compound in combination with colistin: > 100 µg/mL
[4]; colistin 0.25 μg/mL
  MIC of compound in combination with colistin: > 100 µg/mL
[4]; colistin 0.5 μg/mL
  MIC of compound in combination with colistin: > 100 µg/mL
[5]; Cpd conc. 0.4 μg/mL, strain F
  MIC of colistin in combination with the compound: 0.5 µg/mL
[5]; Cpd conc. 0.8 μg/mL, strain F
  MIC of colistin in combination with the compound: 0.5 µg/mL
[5]; Cpd conc. 3.125 μg/mL, strain F
  MIC of colistin in combination with the compound: 0.5 µg/mL
[5]; Cpd conc. 6.25 μg/mL, strain F
  MIC of colistin in combination with the compound: 0.5 µg/mL
[5]; Cpd conc. 12.5 μg/mL, strain F
  MIC of colistin in combination with the compound: 0.5 µg/mL
[5]; Cpd conc. […], strain F
  MIC of colistin in combination with the compound: 0.5 µg/mL
[5]; agent alone, no adjuvant (polymyxin conc. 0), strain F, read-out: MIC
  MIC: > 100 µg/mL
[5]; [7]
  MIC: > 100 µg/mL
[5]; PMB 0.25 μg/mL, strain F
  MIC of compound in combination with PMB: > 100 µg/mL
[5]; PMB 0.5 μg/mL, strain F
  MIC of compound in combination with PMB: 1.6 µg/mL
[5]; colistin 0.06 μg/mL, strain F
  MIC of compound in combination with colistin: > 100 µg/mL
[5]; colistin 0.125 μg/mL, strain F
  MIC of compound in combination with colistin: > 100 µg/mL
[5]; colistin 0.25 μg/mL, strain F
  MIC of compound in combination with colistin: > 100 µg/mL
[5]; colistin 0.5 μg/mL, strain F
  MIC of compound in combination with colistin: ≤ 0.1 µg/mL
[5]; [8]
  MICA(A + B) (MIC of compound in combination with colistin): 0.4 µg/mL
  MICB(A + B) (MIC of colistin in combination with compound): 0.5 µg/mL
[5]; compound + colistin
  Interpretation (of FICI): Indifferent (1.0 to 4.0 were indifferent)
[5]; [9]
  FICI: 1.002
[6]; Cpd conc. 0.4 μg/mL, strain H
  MIC of colistin in combination with the compound: > 0.5 µg/mL
[6]; Cpd conc. 0.8 μg/mL, strain H
  MIC of colistin in combination with the compound: > 0.5 µg/mL
[6]; Cpd conc. 3.125 μg/mL, strain H
  MIC of colistin in combination with the compound: 0.5 µg/mL
[6]; Cpd conc. 6.25 μg/mL, strain H
  MIC of colistin in combination with the compound: 0.5 µg/mL
[6]; Cpd conc. 12.5 μg/mL, strain H
  MIC of colistin in combination with the compound: 0.5 µg/mL
[6]; Cpd conc. […], strain H
  MIC of colistin in combination with the compound: > 0.5 µg/mL
[6]; PMB 0.25 μg/mL, strain H
  MIC of compound in combination with PMB: > 100 µg/mL
[6]; PMB 0.5 μg/mL, strain H
  MIC of compound in combination with PMB: > 100 µg/mL
[6]; agent alone, no adjuvant (polymyxin conc. 0), strain H, read-out: MIC
  MIC: > 100 µg/mL
[6]; [7]
  MIC: > 100 µg/mL
[6]; colistin 0.06 μg/mL, strain H
  MIC of compound in combination with colistin: > 100 µg/mL
[6]; colistin 0.125 μg/mL, strain H
  MIC of compound in combination with colistin: > 100 µg/mL
[6]; colistin 0.25 μg/mL, strain H
  MIC of compound in combination with colistin: > 100 µg/mL
[6]; colistin 0.5 μg/mL, strain H
  MIC of compound in combination with colistin: 3.1 µg/mL
[6]; [8]
  MICA(A + B) (MIC of compound in combination with colistin): 3.125 µg/mL
  MICB(A + B) (MIC of colistin in combination with compound): 0.5 µg/mL
[6]; compound + colistin
  Interpretation (of FICI): Additive (from 0.5 to 1.0 were additive)
[6]; [9]
  FICI: 0.52
